Reference: ChEMBL document CHEMBL1158724, “Ipomoeassins A-E, cytotoxic macrocyclic glycoresins from the leaves of Ipomoea squamosa from the Suriname rainforest” (J Nat Prod, 2005)
pIC50: −log10 of the molar value.

What follows are molecules tested on A2780 (assay: Cytotoxicity against human A2780 cells).
Assay type: functional, cell-based

Question: C/C=C(\C)C(=O)O[C@@H]1[C@@H](O)[C@@H]2O[C@H]3[C@H](O[C@@H](CCC)CCCCCCC(=O)CCC(=O)OC[C@@H](O2)[C@H]1OC(=O)/C=C/c1ccccc1)O[C@H](C)[C@H](OC(C)=O)[C@@H]3O [IPOMOEASSIN A] was tested. Which pIC50 did it give?
Answer: 6.30

Question: How did the pIC50 turn out when C/C=C(\C)C(=O)O[C@@H]1[C@@H](O)[C@@H]2O[C@H]3[C@H](O[C@@H](CCC)CCCCC[C@H](O)C(=O)CCC(=O)OC[C@@H](O2)[C@H]1OC(=O)/C=C/c1ccccc1)O[C@H](C)[C@H](OC(C)=O)[C@@H]3O [IPOMOEASSIN C] was run?
Answer: 5.54

Question: With C/C=C(\C)C(=O)O[C@@H]1[C@@H](OC(C)=O)[C@@H]2O[C@H]3[C@H](O[C@@H](CCC)CCCCCCC(=O)CCC(=O)OC[C@@H](O2)[C@H]1OC(=O)/C=C/c1ccccc1)O[C@H](C)[C@H](OC(C)=O)[C@@H]3OC(C)=O as the molecule, how does the pIC50 read?
Answer: 4.80

Question: C/C=C(\C)C(=O)O[C@@H]1[C@@H](OC(C)=O)[C@@H]2O[C@H]3[C@H](O[C@@H](CCC)CCCCC[C@H](OC(C)=O)C(=O)CCC(=O)OC[C@@H](O2)[C@H]1OC(=O)/C=C/c1ccccc1)O[C@H](C)[C@H](OC(C)=O)[C@@H]3OC(C)=O was tested. Which pIC50 did it give?
Answer: 4.72

Question: C/C=C(\C)C(=O)O[C@@H]1[C@@H](O)[C@@H]2O[C@H]3[C@H](O[C@@H](CCC)CCCCC[C@H](OC(C)=O)C(=O)CCC(=O)OC[C@@H](O2)[C@H]1OC(=O)/C=C/c1ccccc1)O[C@H](C)[C@H](O)[C@@H]3O [IPOMOEASSIN E] was tested. Which pIC50 did it give?
Answer: 5.48

Question: How did the pIC50 turn out when C/C=C(\C)C(=O)O[C@@H]1[C@@H](O)[C@@H]2O[C@H]3[C@H](O[C@@H](CCC)CCCCCCC(=O)CCC(=O)OC[C@@H](O2)[C@H]1OC(=O)/C=C/c1ccccc1)O[C@H](C)[C@H](O)[C@@H]3O [IPOMOEASSIN B] was run?
Answer: 6.40

Question: C/C=C(\C)C(=O)O[C@@H]1[C@@H](O)[C@@H]2O[C@H]3[C@H](O[C@@H](CCC)CCCCC[C@H](OC(C)=O)C(=O)CCC(=O)OC[C@@H](O2)[C@H]1OC(=O)/C=C/c1ccccc1)O[C@H](C)[C@H](OC(C)=O)[C@@H]3O [IPOMOEASSIN D] was tested. Which pIC50 did it give?
Answer: 7.46
